Data from US9060981B2, “Marker associated with non-alcoholic steatohepatitis” (MOCHIDA PHARMACEUTICAL CO., LTD., priority 2009, dated 2015).
Entries after “also recorded” stand apart in the source; their conditions may differ.

Experiments:
B6 mice = test: Fatty liver in B6 mice raised 20 weeks on high fat/high sugar diet; assay type: in vivo, mouse; settings: high fat/high sugar diet + 5% EPA-E, free feeding, 20 weeks (group III)
Text: B6 mice (10 week old) were divided into control group (I), HF-HS group (II), and EPA group (III) (n=7 to 10), and the mice were raised for 20 weeks by free feeding of the following diet.

[1] = tested on: second factor group genes in the liver; test: Gene microarray analysis of the liver of mice on high fat/high sugar diet; assay type: in vivo, mouse; settings: EPA group vs HF-HS group, 20 weeks
Text: (2) Next, expression of genes in the liver was compared in 3 groups, namely, the control group fed with normal diet, the HF-HS group, and the EPA group. […] (A) HF-HS group/control group ≧2 and EPA group/HF-HS group ≦0.5. (B) HF-HS group/control group ≦0.5 and EPA group/HF-HS group ≧2. Liver was extirpated from the mice of each group, and RNA was extracted by homogenization to conduct gene microarray analysis of the liver. The genes were selected as described below. (1) Genes with group II/group I expression ratio of 2 or higher and group III/group II expression ratio of up to 1/2 were selected. (2) Genes with the group II/group I expression ratio of up to 1/2 and the group III/group II ratio of 2 or more were selected. […] (4) Genes which are (1) but not (3) were selected. (5) Genes which are (2) but not (3) were selected. Next, factors with the possibility of protein secretion into blood were selected from the genes (4), and then, genes satisfying any of relevance with lipid metabolism, relevance with inflammation, increase of expression in the liver of SREBP transgenic mouse were selected from these genes. Genes were selected from the genes (5) by conducting the procedure corresponding to (6).

NASH model rats = settings: telmisartan administered for 10 weeks; cited from earlier work

Row | Compound | fatty liver (B6 mice) | group III/group II expression ratio, second factor (A) group genes ([1]; genes with group II/group I ratio of 2 or higher (Table 2)) | group III/group II expression ratio, second factor (B) group genes ([1]; genes with group II/group I ratio of up to 1/2 (Table 3)) | expression of TIMP1 and TIMP2 mRNAs in the liver tissue (NASH model rats) | liver fibrosis (NASH model rats)
1 | CC/C=C\C/C=C\C/C=C\C/C=C\C/C=C\CCCC(=O)OCC [EPA-E, ethyl icosapentate] | fatty liver was not observed; also recorded: fatty liver was not induced | up to 1/2 | ≥ 2 | – | –
2 | CCCc1nc2c(C)cc(-c3nc4ccccc4n3C)cc2n1Cc1ccc(-c2ccccc2C(=O)O)cc1 [telmisartan] | – | – | – | decrease | suppression; also recorded: suppressed
